pIC50: −log10 of the molar value.
Experiments:
[1] = tested on: HCV replicon RNA (GenBank Accession No. AJ242654); assay: HCV Replicon Assay (replicon RNA reduction and/or Fluc reporter signal); format: cell-based, Hepatitis C virus; details: Hepatitis C virus, 72 h, replicon-containing cells cultured with test compound for up to 3 days
Outline: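 IC50 values mostly reflect the drop in replicon RNA, though Fluc reporter signal may also be used. Compound incubated with cells carrying the bicistronic replicon for as long as 3 days; interferon served as positive control.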

Row | Compound | pIC50 [1] | melting point [°C]
1 | C[C@@H](NS(=O)(=O)c1ccc(-c2c(C#N)c3cc(OC(F)F)cnc3n2C2CCC2)nc1)C(F)(F)F [Cpd 197, 6-[3-cyano-1-cyclobutyl-5-(difluoromethoxy)-1H-pyrrolo[2,3-b]pyridin-2-yl]-N-[(2R)-1,1,1-trifluoropropan-2-yl]pyridine-3-sulfonamide] | > 6.30 | 149 to 151
2 | C[C@H](NS(=O)(=O)c1ccc(-c2c(C#N)c3cc(OC(F)F)cnc3n2C2CCC2)cc1)C(F)(F)F [Cpd 198, 4-[3-cyano-1-cyclobutyl-5-(difluoromethoxy)-1H-pyrrolo[2,3-b]pyridin-2-yl]-N-[(2S)-1,1,1-trifluoropropan-2-yl]benzenesulfonamide] | 5.70 to 6.30 | 155 to 156
3 | C[C@@H](NS(=O)(=O)c1ccc(-c2c(C#N)c3cc(OC(F)F)cnc3n2C2CCC2)cc1)C(F)(F)F [Cpd 199, 4-[3-cyano-1-cyclobutyl-5-(difluoromethoxy)-1H-pyrrolo[2,3-b]pyridin-2-yl]-N-[(2R)-1,1,1-trifluoropropan-2-yl]benzenesulfonamide] | > 6.30 | 199 to 200
4 | CC(C)(NS(=O)(=O)c1ccc(-c2c(C#N)c3cc(OC(F)F)cnc3n2C2CCC2)nc1)C(F)(F)F [Cpd 201, 6-[3-cyano-1-cyclobutyl-5-(difluoromethoxy)-1H-pyrrolo[2,3-b]pyridin-2-yl]-N-(1,1,1-trifluoro-2-methylpropan-2-yl)pyridine-3-sulfonamide] | > 6.30 | 168 to 169
5 | CCOc1cnc2c(c1)c(C#N)c(-c1ccc(S(=O)(=O)N[C@@H](C)C(F)(F)F)cn1)n2C1CCC1 [Cpd 202, 6-(3-cyano-1-cyclobutyl-5-ethoxy-1H-pyrrolo[2,3-b]pyridin-2-yl)-N-[(2S)-1,1,1-trifluoropropan-2-yl]pyridine-3-sulfonamide] | > 6.30 | 181 to 182
6 | CCOc1cnc2c(c1)c(C#N)c(-c1ccc(S(=O)(=O)N[C@H](C)C(F)(F)F)cn1)n2C1CCC1 [Cpd 203, 6-(3-cyano-1-cyclobutyl-5-ethoxy-1H-pyrrolo[2,3-b]pyridin-2-yl)-N-[(2R)-1,1,1-trifluoropropan-2-yl]pyridine-3-sulfonamide] | > 6.30 | 180 to 181
7 | CCCOc1cnc2c(c1)c(C#N)c(-c1ccc(S(=O)(=O)N[C@@H](C)C(F)(F)F)cn1)n2C1CCC1 [Cpd 204, 6-(3-cyano-1-cyclobutyl-5-propoxy-1H-pyrrolo[2,3-b]pyridin-2-yl)-N-[(2S)-1,1,1-trifluoropropan-2-yl]pyridine-3-sulfonamide] | > 6.30 | 170 to 171
8 | CCCOc1cnc2c(c1)c(C#N)c(-c1ccc(S(=O)(=O)N[C@H](C)C(F)(F)F)cn1)n2C1CCC1 [Cpd 205, 6-(3-cyano-1-cyclobutyl-5-propoxy-1H-pyrrolo[2,3-b]pyridin-2-yl)-N-[(2R)-1,1,1-trifluoropropan-2-yl]pyridine-3-sulfonamide] | > 6.30 | 169 to 170
9 | Cc1cnc2c(C#N)c(-c3ccc(S(=O)(=O)N[C@@H](C)C(F)(F)F)cn3)n(C3CCC3)c2c1 [Cpd 206, 6-(3-cyano-1-cyclobutyl-6-methyl-1H-pyrrolo[3,2-b]pyridin-2-yl)-N-[(2S)-1,1,1-trifluoropropan-2-yl]pyridine-3-sulfonamide] | 5.70 to 6.30 | 217 to 218
10 | Cc1cnc2c(C#N)c(-c3ccc(S(=O)(=O)N[C@H](C)C(F)(F)F)cn3)n(C3CCC3)c2c1 [Cpd 207, 6-(3-cyano-1-cyclobutyl-6-methyl-1H-pyrrolo[3,2-b]pyridin-2-yl)-N-[(2R)-1,1,1-trifluoropropan-2-yl]pyridine-3-sulfonamide] | 5.70 to 6.30 | 207 to 209
11 | Cc1cnc2c(C#N)c(-c3ccc(S(=O)(=O)NC4(C(F)(F)F)CC4)cn3)n(C3CCC3)c2c1 [Cpd 208, 6-(3-cyano-1-cyclobutyl-6-methyl-1H-pyrrolo[3,2-b]pyridin-2-yl)-N-[1-(trifluoromethyl)cyclopropyl]pyridine-3-sulfonamide] | > 6.30 | 248 to 249
12 | Cc1cnc2c(C#N)c(-c3ccc(S(=O)(=O)NC(C)(C)C(F)(F)F)cn3)n(C3CCC3)c2c1 [Cpd 209, 6-(3-cyano-1-cyclobutyl-6-methyl-1H-pyrrolo[3,2-b]pyridin-2-yl)-N-(1,1,1-trifluoro-2-methylpropan-2-yl)pyridine-3-sulfonamide] | > 6.30 | 238 to 240
13 | Cc1cnc2c(C#N)c(-c3ccc(S(=O)(=O)NC4(C)CC4)cn3)n(C3CCC3)c2c1 [Cpd 210, 6-(3-cyano-1-cyclobutyl-6-methyl-1H-pyrrolo[3,2-b]pyridin-2-yl)-N-(1-methylcyclopropyl)pyridine-3-sulfonamide] | > 6.30 | 187 to 188
14 | Cc1cnc2c(C#N)c(-c3ccc(S(=O)(=O)NC(C)(C)C)cn3)n(C3CCC3)c2c1 [Cpd 211, N-tert-butyl-6-(3-cyano-1-cyclobutyl-6-methyl-1H-pyrrolo[3,2-b]pyridin-2-yl)pyridine-3-sulfonamide] | > 6.30 | 227 to 229
15 | Cc1cnc2c(C#N)c(-c3ccc(S(=O)(=O)NC(CF)CF)cn3)n(C3CCC3)c2c1 [Cpd 212, 6-(3-cyano-1-cyclobutyl-6-methyl-1H-pyrrolo[3,2-b]pyridin-2-yl)-N-(1,3-difluoropropan-2-yl)pyridine-3-sulfonamide] | > 6.30 | 219 to 221
16 | Cc1cnc2c(C#N)c(-c3ncc(S(=O)(=O)NC(CF)CF)cn3)n(C3CCC3)c2c1 [Cpd 213, 2-(3-cyano-1-cyclobutyl-6-methyl-1H-pyrrolo[3,2-b]pyridin-2-yl)-N-(1,3-difluoropropan-2-yl)pyrimidine-5-sulfonamide] | > 6.30 | 269 to 271
17 | Cc1cnc2c(C#N)c(-c3ncc(S(=O)(=O)NC(C)C)cn3)n(C3CCC3)c2c1 [Cpd 214, 2-(3-cyano-1-cyclobutyl-6-methyl-1H-pyrrolo[3,2-b]pyridin-2-yl)-N-(propan-2-yl)pyrimidine-5-sulfonamide] | > 6.30 | 278 to 280
18 | Cc1cnc2c(C#N)c(-c3ncc(S(=O)(=O)N[C@@H](C)C(F)(F)F)cn3)n(C3CCC3)c2c1 [Cpd 215, 2-(3-cyano-1-cyclobutyl-6-methyl-1H-pyrrolo[3,2-b]pyridin-2-yl)-N-[(2S)-1,1,1-trifluoropropan-2-yl]pyrimidine-5-sulfonamide] | 5.70 to 6.30 | 268 to 269
19 | Cc1cnc2c(C#N)c(-c3ccc(S(=O)(=O)N[C@@H](C)C(F)(F)F)cc3)n(C3CCC3)c2c1 [Cpd 216, 4-(3-cyano-1-cyclobutyl-6-methyl-1H-pyrrolo[3,2-b]pyridin-2-yl)-N-[(2S)-1,1,1-trifluoropropan-2-yl]benzenesulfonamide] | 5.70 to 6.30 | 245 to 246
20 | Cc1cnc2c(C#N)c(-c3ccc(S(=O)(=O)N[C@H](C)C(F)(F)F)cc3)n(C3CCC3)c2c1 [Cpd 217, 4-(3-cyano-1-cyclobutyl-6-methyl-1H-pyrrolo[3,2-b]pyridin-2-yl)-N-[(2R)-1,1,1-trifluoropropan-2-yl]benzenesulfonamide] | 5.30 to 5.70 | 252 to 253
21 | CC(C)Oc1cnc2c(c1)c(C#N)c(-c1ccc(S(=O)(=O)N[C@@H](C)C(F)(F)F)cn1)n2C1CCC1 [Cpd 218, 6-[3-cyano-1-cyclobutyl-5-(propan-2-yloxy)-1H-pyrrolo[2,3-b]pyridin-2-yl]-N-[(2S)-1,1,1-trifluoropropan-2-yl]pyridine-3-sulfonamide] | > 6.30 | 168 to 169
22 | CCc1cc2c(C#N)c(-c3ccc(S(=O)(=O)N[C@@H](C)C(F)(F)F)cc3)n(C3CCC3)c2cn1 [Cpd 219, 4-(3-cyano-1-cyclobutyl-5-ethyl-1H-pyrrolo[2,3-c]pyridin-2-yl)-N-[(2S)-1,1,1-trifluoropropan-2-yl]benzenesulfonamide] | > 6.30 | 200 to 203
23 | CCc1cc2c(C#N)c(-c3ccc(NS(=O)(=O)C(C)C)cc3)n(C3CCC3)c2cn1 [Cpd 220, N-[4-(3-cyano-1-cyclobutyl-5-ethyl-1H-pyrrolo[2,3-c]pyridin-2-yl)phenyl]propane-2-sulfonamide] | > 6.30 | 160 to 165
24 | C[C@H](NS(=O)(=O)c1ccc(-c2c(C#N)c3cccnc3n2C2CCCC2)nc1)C(F)(F)F [Cpd 221, 6-(3-cyano-1-cyclopentyl-1H-pyrrolo[2,3-b]pyridin-2-yl)-N-[(2S)-1,1,1-trifluoropropan-2-yl]pyridine-3-sulfonamide] | > 6.30 | 157 to 159
25 | C[C@H](NS(=O)(=O)c1ccc(-c2c(C#N)c3cc(C4CC4)ncc3n2C2CCC2)nc1)C(F)(F)F [Cpd 223, 6-(3-cyano-1-cyclobutyl-5-cyclopropyl-1H-pyrrolo[2,3-c]pyridin-2-yl)-N-[(2S)-1,1,1-trifluoropropan-2-yl]pyridine-3-sulfonamide] | 5.70 to 6.30 | 200 to 205
26 | C[C@H](NS(=O)(=O)c1ccc(-c2c(C#N)c3cc(C4CC4)ncc3n2C2CCC2)cc1)C(F)(F)F [Cpd 224, 4-(3-cyano-1-cyclobutyl-5-cyclopropyl-1H-pyrrolo[2,3-c]pyridin-2-yl)-N-[(2S)-1,1,1-trifluoropropan-2-yl]benzenesulfonamide] | > 6.30 | 190 to 195
27 | COc1cnc2c(c1)c(C(N)=O)c(-c1ccc(S(=O)(=O)N[C@@H](C)C(F)(F)F)cn1)n2C1CCC1 [Cpd 226, 1-cyclobutyl-5-methoxy-2-(5-{[(2S)-1,1,1-trifluoropropan-2-yl]sulfamoyl}pyridin-2-yl)-1H-pyrrolo[2,3-b]pyridine-3-carboxamide] | > 6.30 | 233 to 235
